Values quoted from earlier work, collected in patent publication EP1574563B1, “Use of detergent tablets” (UNILEVER N.V., priority 2004, dated 2005).
Read-outs that look alike come from different tables or passages of the source.

[1] = other common materials, by contrast, at 20°C

SMILES	Water Solubility (g/100g) [1] [g/100g]	Water Solubility (g/100g) (highly water-soluble materials, grams of solid required to form a saturated solution in 100 grams of water at 20°C)
O=BO[O-].[Na+] [Sodium perborate anhydrous]	3.7	
O=P(O)(O)OP(=O)(O)OP(=O)(O)O [Sodium tripolyphosphate anhydrous]	15	
NC(N)=O [Urea]		>100
